Each structure is given as a SMILES string. Structures can show the parent of a compound that is named as a salt.

The source of these data is US6492387B2, “Isoindolyl and isoquinolinyl aroyl pyrrole compounds” (Ortho-McNeil Pharamaceutical, Inc., priority 2000, dated 2002).

Take `COc1cc2c(cc1OC)CN(CC(=O)c1cc(C(=O)c3ccc(SC)cc3)n(C)c1)CC2` (as salt: hydrochloride) [Compound 4, 2-(3,4-dihydro-6,7-dimethoxy-2(1H)-isoquinolinyl)-1-[1-methyl-5-[4-(methylthio)benzoyl]-1H-pyrrol-3-yl]-ethanone]: the melting point is 231 to 233 °C.
